Assay results from publication PMC12647645, “Structural interactions of BWC0977 with Klebsiella pneumoniae topoisomerase IV and biochemical basis of its broad-spectrum activity” (Communications Biology, 2025).
≈ marks a conversion by molar mass, not a printed value. Like-named read-outs stand apart in the source and are kept apart here.

What was measured:
[1] = molecular target: P. aeruginosa topoisomerase IV (Pseudomonas aeruginosa, UniProt Q9HUJ8+Q9HUK1); assay: Topoisomerase IV decatenation assay, P. aeruginosa; format: biochemical; set-up: Topo IV decatenation inhibition response: unit not given here
Procedure: Topoisomerase IV decatenation reactions were performed using 2.5 nM E. coli enzyme and 60 ng kinetoplast DNA (kDNA) in an assay buffer containing 50 mM HEPES-KOH (pH 7.6), 100 mM potassium glutamate, 10 mM magnesium acetate, 10 mM DTT, 1 mM ATP, and 50 μg/mL albumin. Assays with P. aeruginosa topoisomerase IV (3 nM) were conducted in a similar buffer but with 50 mM HEPES-KOH (pH 7.9), 100 mM potassium glutamate, 6 mM magnesium acetate, 6 mM DTT, 1 mM ATP, 2 mM spermidine, and 50 μg/mL albumin. For S. aureus topoisomerase IV assay, the reactions contained 4 nM enzyme in an assay buffer composed of 50 mM Tris-HCl (pH 7.5), 5 mM MgCl₂, 5 mM DTT, 1.5 mM ATP, 350 mM potassium glutamate, and 0.05 mg/mL albumin. The procedures followed were consistent with those used in the supercoiling assays. Decatenated minicircles were resolved on 0.8% agarose gels, while the kDNA substrate remained in the wells. Gels were stained with 0.8 μg/mL ethidium bromide solution for 10 min, followed by destaining. DNA bands were visualized using a gel documentation system, and compound inhibition analysis was carried out using the same procedures described for the supercoiling assays.

[2] = test system: E. coli MG1655 GyrA D82N, ParC WT; assay: microbe, parasite or virus in culture; format: cell-based; conditions: Escherichia coli
[3] = test system: E. coli MG1655 GyrA D82N, ParC D79N; assay: microbe, parasite or virus in culture; format: cell-based; conditions: Escherichia coli
[4] = test system: E. coli MG1655 GyrA WT, ParC R119K; assay: microbe, parasite or virus in culture; format: cell-based; conditions: Escherichia coli
E. coli BAA 2469 = assay: microbe, parasite or virus in culture; format: cell-based; conditions: Escherichia coli, BAA2469
K. pneumoniae BAA 2782 = assay: microbe, parasite or virus in culture; format: cell-based; conditions: Klebsiella pneumoniae, BAA2782
A. baumannii BAA 2885 = assay: microbe, parasite or virus in culture; format: cell-based; conditions: Acinetobacter baumannii, BAA2885
[5] = test system: A. baumannii ATCC 19606 resistant mutant colonies (mutant 1-5); assay: microbe, parasite or virus in culture; format: cell-based; conditions: Acinetobacter baumannii
A. baumannii ATCC 19606 = assay: In vitro spontaneous resistance frequency; format: cell-based
Procedure: Spontaneous resistance frequencies to BWC0977 were evaluated in E. coli ATCC 25922, P. aeruginosa ATCC 27853, and A. baumannii ATCC 19606. Mid-logarithmic phase cultures (~10^9 CFU/mL) were plated onto Luria-Bertani agar containing BWC0977 at 4×, 8×, and 16× the respective MICs. Plates were incubated at 37 °C for 24–36 h, and resistance frequencies were estimated by counting colony-forming units (CFUs) on the drug-containing plates. MICs of the isolated colonies were determined, and the gyrA, gyrB, parC, and parE genes were sequenced to assess for target-site mutations.

E. faecium = test system: E. faecium; set-up: method as in ref 6 (Hameed P et al., 2024); conditions: ref 6 (Hameed P et al., 2024); cited from earlier work
[6] = test system: multidrug-resistant (MDR) Gram-negative bacteria, Gram-positive bacteria, anaerobes, and biothreat pathogens; conditions: diverse global panel; cited from earlier work

Chain of P. aeruginosa topoisomerase IV (Q9HUK1 whole entry): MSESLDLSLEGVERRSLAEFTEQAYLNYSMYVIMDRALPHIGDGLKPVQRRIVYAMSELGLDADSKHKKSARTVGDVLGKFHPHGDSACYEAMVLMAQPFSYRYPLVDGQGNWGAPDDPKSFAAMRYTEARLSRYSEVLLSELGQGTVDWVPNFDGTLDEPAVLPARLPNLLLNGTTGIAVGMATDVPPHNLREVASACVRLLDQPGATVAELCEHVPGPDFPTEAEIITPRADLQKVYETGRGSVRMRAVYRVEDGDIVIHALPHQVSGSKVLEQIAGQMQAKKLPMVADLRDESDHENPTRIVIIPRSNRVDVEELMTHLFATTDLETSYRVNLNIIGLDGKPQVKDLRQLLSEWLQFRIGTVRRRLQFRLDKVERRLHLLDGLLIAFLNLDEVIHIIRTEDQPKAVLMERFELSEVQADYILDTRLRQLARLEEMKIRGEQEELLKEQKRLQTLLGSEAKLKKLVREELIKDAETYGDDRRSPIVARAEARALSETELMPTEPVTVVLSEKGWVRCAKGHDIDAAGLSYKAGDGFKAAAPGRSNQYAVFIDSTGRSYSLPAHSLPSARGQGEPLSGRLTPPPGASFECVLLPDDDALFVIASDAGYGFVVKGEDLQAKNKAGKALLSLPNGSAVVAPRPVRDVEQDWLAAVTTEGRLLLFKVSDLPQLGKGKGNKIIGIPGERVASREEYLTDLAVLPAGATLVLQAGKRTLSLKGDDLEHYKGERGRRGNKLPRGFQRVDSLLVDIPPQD
Chain of P. aeruginosa topoisomerase IV (Q9HUJ8 whole entry): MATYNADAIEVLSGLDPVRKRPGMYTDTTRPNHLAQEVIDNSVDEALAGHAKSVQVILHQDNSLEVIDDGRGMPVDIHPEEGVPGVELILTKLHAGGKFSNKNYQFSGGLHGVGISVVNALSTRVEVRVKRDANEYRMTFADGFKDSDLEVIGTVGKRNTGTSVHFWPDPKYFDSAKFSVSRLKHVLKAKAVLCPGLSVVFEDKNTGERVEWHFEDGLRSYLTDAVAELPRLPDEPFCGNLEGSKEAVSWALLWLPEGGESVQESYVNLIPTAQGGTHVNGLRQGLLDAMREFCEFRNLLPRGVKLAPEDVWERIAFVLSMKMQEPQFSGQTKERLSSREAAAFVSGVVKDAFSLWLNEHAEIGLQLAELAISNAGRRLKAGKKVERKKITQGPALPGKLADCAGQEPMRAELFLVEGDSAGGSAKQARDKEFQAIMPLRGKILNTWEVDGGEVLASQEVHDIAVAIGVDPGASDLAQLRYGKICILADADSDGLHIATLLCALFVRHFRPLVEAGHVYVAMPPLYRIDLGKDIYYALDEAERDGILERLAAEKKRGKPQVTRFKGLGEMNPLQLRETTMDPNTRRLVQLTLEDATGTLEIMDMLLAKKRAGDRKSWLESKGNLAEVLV

Structure (SMILES): Cn1c(=O)ccc2ccc(F)c(CCNC[C@H]3CN(c4cnc5c(n4)NC(=O)CO5)C(=O)O3)c21 [BWC0977]
- IC50 [1]: 77 nM
- Topo IV decatenation inhibition response ([1]; P. aeruginosa topo IV, compound 0.0114 μM, source data Fig 2B, listed as 977, 0.0114 µM): 7.06
- inhibition at 0.0114 µM ([1]; P. aeruginosa topo IV, compound 0.0114 μM, source data Fig 2B, read-out: Topo IV decatenation inhibition response): 10.9%
- Topo IV decatenation inhibition response ([1]; P. aeruginosa topo IV, compound 0.0343 μM, source data Fig 2B, listed as 977, 0.0343 µM): 24.14
- inhibition at 0.0343 µM ([1]; P. aeruginosa topo IV, compound 0.0343 μM, source data Fig 2B, read-out: Topo IV decatenation inhibition response): 18.9%
- Topo IV decatenation inhibition response ([1]; P. aeruginosa topo IV, compound 0.1029 μM, source data Fig 2B, listed as 977, 0.1029 µM): 63.17
- inhibition at 0.1029 µM ([1]; P. aeruginosa topo IV, compound 0.1029 μM, source data Fig 2B, read-out: Topo IV decatenation inhibition response): 61.6%
- Topo IV decatenation inhibition response ([1]; P. aeruginosa topo IV, compound 0.3086 μM, source data Fig 2B, listed as 977, 0.3086 µM): 85.90
- inhibition at 0.3086 µM ([1]; P. aeruginosa topo IV, compound 0.3086 μM, source data Fig 2B, read-out: Topo IV decatenation inhibition response): 88.3%
- Topo IV decatenation inhibition response ([1]; P. aeruginosa topo IV, compound 0.9259 μM, source data Fig 2B, listed as 977, 0.9259 µM): 91.28
- inhibition at 0.9259 µM ([1]; P. aeruginosa topo IV, compound 0.9259 μM, source data Fig 2B, read-out: Topo IV decatenation inhibition response): 91.1%
- Topo IV decatenation inhibition response ([1]; P. aeruginosa topo IV, compound 2.7778 μM, source data Fig 2B, listed as 977, 2.7778 µM): 91.48
- inhibition at 2.7778 µM ([1]; P. aeruginosa topo IV, compound 2.7778 μM, source data Fig 2B, read-out: Topo IV decatenation inhibition response): 94.5%
- Topo IV decatenation inhibition response ([1]; P. aeruginosa topo IV, compound 8.3333 μM, source data Fig 2B, listed as 977, 8.3333 µM): 92.85
- inhibition at 8.3333 µM ([1]; P. aeruginosa topo IV, compound 8.3333 μM, source data Fig 2B, read-out: Topo IV decatenation inhibition response): 97.1%
- Topo IV decatenation inhibition response ([1]; P. aeruginosa topo IV, compound 25 μM, source data Fig 2B, listed as 977, 25 µM): 94.54
- inhibition at 25 µM ([1]; P. aeruginosa topo IV, compound 25 μM, source data Fig 2B, read-out: Topo IV decatenation inhibition response): 99.2%
- MIC [2]: 0.08 µg/mL (≈ 0.171 µM)
- MIC [3]: 7.5 µg/mL (≈ 16 µM)
- MIC [4]: 0.026 µg/mL (≈ 0.0555 µM)
- MIC (E. coli BAA 2469): 0.01 µg/mL (≈ 0.0213 µM)
- MIC (K. pneumoniae BAA 2782): 0.125 µg/mL (≈ 0.267 µM)
- MIC (A. baumannii BAA 2885): 0.5 µg/mL (≈ 1.07 µM)
- MIC90 ([5]; ATCC19606, read-out: MIC 90 in (μg/mL), resistant mutant colony 1): 0.6 µg/mL (≈ 1.28 µM)
- MIC90 ([5]; ATCC19606, read-out: MIC 90 in (μg/mL), resistant mutant colony 2): 0.07 µg/mL (≈ 0.149 µM)
- MIC90 ([5]; ATCC19606, read-out: MIC 90 in (μg/mL), resistant mutant colony 3): 0.07 µg/mL (≈ 0.149 µM)
- MIC90 ([5]; ATCC19606, read-out: MIC 90 in (μg/mL), resistant mutant colony 4): 0.07 µg/mL (≈ 0.149 µM)
- MIC90 ([5]; ATCC19606, read-out: MIC 90 in (μg/mL), resistant mutant colony 5): 0.3 µg/mL (≈ 0.64 µM)
- number of resistant mutant colonies (A. baumannii ATCC 19606; 0.6 μg/mL (4× MIC)): five
- resistance frequency (A. baumannii ATCC 19606; 4× MIC): less than 1 × 10^−9
- MIC increase of resistant colonies (A. baumannii ATCC 19606; colonies selected at 4× MIC of the same compound): four-fold
- MIC90 against diverse global isolates (E. faecium): 0.12 µg/mL (≈ 0.256 µM)
- minimum inhibitory concentration (MIC90) range [6]: 0.03 to 2 µg/mL
